Results published in paper PMC7988117, “OMN6 a novel bioengineered peptide for the treatment of multidrug resistant Gram negative bacteria” (Scientific Reports, 2021).
Read-outs that look alike come from different tables or passages of the source.

Tests used:
A. baumannii BAA-1793 = details: determined by ATCC according to CLSI guidelines, ref ATCC; cited from earlier work
Text: Supplement 41598_2021_86155_MOESM1_ESM.docx, table 3: Table S3. Supplementary information about the resistance pattern of the bacterial strain A. baumannii BAA-1793 used in the Minimum Inhibitory Concentration study presented in Table 1.

E. faecium BAA-2319 = details: determined by ATCC according to CLSI guidelines, ref ATCC; cited from earlier work
Text: Supplement 41598_2021_86155_MOESM1_ESM.docx, table 2: Table S2. Supplementary information about the resistance pattern of the bacterial strain E. faecium BAA-2319 used in the Minimum Inhibitory Concentration study presented in Table 1.

Staphylococcus aureus = test: VITEK 2 antimicrobial sensitivity characterization; type: cell-based; details: VITEK 2 system, CLSI ranges
Description: (§1) This experiment was conducted by Omnix Medical, by JMI Laboratories (North Liberty, IA, USA) and by Aptuit (Verona) S.r.l. (Italy), an Evotec Company. All studies were performed according to Clinical and Laboratory Standards Institute guidelines[30] for the application of the broth microdilution method. Reference strains from American Type Culture Collection (ATCC) and clinical isolates from the Evotec EvostrAIn and the JMI Laboratories SENTRY surveillance program culture collections (Acinetobacter baumannii: ACC 00445, ACC 00527, ACC 00535, ATCC 17978, ATCC 19606, ATCC BAA-1793, ACC 01076, ACC 01077, NCTC 13420, JMI #1088100 and JMI #1001007; Klebsiella pneumoniae: ATCC 43816 and ATCC BAA-1705; Escherichia coli: ACC 01001 and ATCC 25922; Staphylococcus aureus: ATCC 29213, ATCC BAA-44 and ATCC 33591; Bacillus cereus: ATCC 14579; Enterococcus faecalis: ATCC 29212; Enterococcus faecium: ATCC BAA-2319) were used. The antimicrobial activity of OMN6 was determined by 12 serial two-fold dilutions in water of the 100-fold highest compound solution; 1 µL of each well was transferred into 96 microtiter plates (final concentration: 256–0.12 µg/mL). In most strains, same procedure was used to determine the colistin antimicrobial activity (final concentration: 32–0.015 µg/mL). Bacterial strains were sub-cultured on the agar plates and incubated for 18–24 h at 35 ± 2 °C in ambient air. Following incubation, the inoculum was prepared from isolated colonies and adjusted to 0.5 McFarland turbidity standard (1 to 2 × 10^8 colony-forming units/mL) in 0.9% saline. Bacterial suspension was then diluted 1:200 in Muller-Hinton broth (from BD; Becton, Dickinson and Company, Franklin Lakes, NJ, USA) and within 15 min 100 µL/well were dispensed. Growth-control wells and sterility-check wells (uninoculated well) were present in each plate. Plates were incubated for 18–24 h at 35 ± 2 °C in ambient air. […] The antimicrobial activity to other antibiotics on most bacterial strains was determined by Evotec using the antimicrobial sensitive test from the VITEK 2 automated microbiology system (bioMérieux SA, Marcy l'Etoile, France; data presented in Table S1), or by ATCC according to CLSI (Clinical and Laboratory Standards Institute) guidelines[30]
Table S1. Supplementary information about the resistance pattern of 14 bacterial strains used in the Minimum Inhibitory Concentration study presented in Table 1. The resistance pattern of the different bacterial isolates was characterized by broth microdilution studies (for colistin) or with the VITEK 2 system (for the other antibiotics).

Acinetobacter baumannii = details: Difco Muller Hinton Broth, data not shown
Description: as §1

[1] = test system: Acinetobacter baumannii clinical isolates; test: Time-kill studies; type: cell-based; details: Difco Muller Hinton Broth
Description: Time-kill experiments were performed by JMI Laboratories (North Liberty, IA, USA) as described in chapter 5.14 of the Clinical Microbiology Procedures Handbook[32] and the CLSI M26-A[33] document. Two Acinetobacter baumannii clinical isolates (JMI colistin-sensitive strain #1088100 and colistin-resistant strain #1001007) were used for this study. MIC values that were determined in Difco Muller Hinton Broth (BD) for OMN6 and colistin as described above, were used as the baseline values during time-kill testing. In the time-kill experiments, OMN6 and colistin were tested in Difco Muller Hinton Broth. The time-kill cultures were sampled at 0, 2, 4, 8, and 24 h after compound addition. The number of CFU/mL in each culture was measured by plating 100 μL of serial dilutions onto blood agar plates. Colonies were counted after 48 h of growth at 35 °C. Time-kill curves were generated by plotting CFU/mL as log10 values over time. The limit of detection was 10 CFU/mL. Bactericidal activity was defined as a ≥ 99.9% reduction (i.e., a ≥ 3 log10 decrease) in the number of input bacterial cells at any arbitrary timepoint.

| Compound | Resistance pattern (A. baumannii BAA-1793) | other results |
| --- | --- | --- |
| NCC[C@H](O)C(=O)N[C@@H]1C[C@H](N)[C@@H](O[C@H]2O[C@H](CN)[C@@H](O)[C@H](O)[C@H]2O)[C@H](O)[C@H]1O[C@H]1O[C@H](CO)[C@@H](O)[C@H](N)[C@H]1O [Amikacin] | S |  |
| CC1(C)S[C@@H]2[C@H](NC(=O)[C@H](N)c3ccccc3)C(=O)N2[C@H]1C(=O)O [Ampicillin] | R | Resistance pattern (E. faecium BAA-2319): R |
| C[C@H]1[C@H](NC(=O)/C(=N\OC(C)(C)C(=O)O)c2csc(N)n2)C(=O)N1S(=O)(=O)O [Aztreonam] | R |  |
| CC1(C)S[C@@H]2[C@H](NC(=O)Cc3ccccc3)C(=O)N2[C@H]1C(=O)O [Benzylpenicillin] |  | Resistance pattern (E. faecium BAA-2319): R |
| CCC[C@@H]1C[C@@H](C(=O)N[C@@H]([C@H]2O[C@H](SC)[C@H](O)[C@@H](O)[C@H]2O)[C@H](C)Cl)N(C)C1 [CLI, clindamycin] |  | VITEK characterization (resistance range) (Staphylococcus aureus; S. aureus ATCC 29213): S; VITEK characterization (resistance range) (Staphylococcus aureus; S. aureus ATCC 33591): R |
| CC(=O)OCC1=C(C(=O)O)N2C(=O)[C@@H](NC(=O)Cc3cccs3)[C@H]2SC1 [Cefalotin] | R |  |
| Cc1nnc(SCC2=C(C(=O)O)N3C(=O)[C@@H](NC(=O)Cn4cnnn4)[C@H]3SC2)s1 [Cefazolin] | R |  |
| CO/N=C(\C(=O)N[C@@H]1C(=O)N2C(C(=O)[O-])=C(C[N+]3(C)CCCC3)CS[C@H]12)c1csc(N)n1 [Cefepime] | R |  |
| CO[C@@]1(NC(=O)C2SC(=C(C(N)=O)C(=O)O)S2)C(=O)N2C(C(=O)O)=C(CSc3nnnn3C)CS[C@@H]21 (stereo partly shown) [Cefotetan] | R |  |
| CO[C@@]1(NC(=O)Cc2cccs2)C(=O)N2C(C(=O)O)=C(COC(N)=O)CS[C@@H]21 [Cefoxitin] | R |  |
| COCC1=C(C(=O)O)N2C(=O)[C@@H](NC(=O)/C(=N\OC)c3csc(N)n3)[C@H]2SC1 [Cefpodoxime] | R |  |
| CO/N=C(\C(=O)N[C@@H]1C(=O)N2C(C(=O)O)=CCS[C@H]12)c1csc(N)n1 [Ceftizoxime] | R |  |
| CO/N=C(\C(=O)N[C@@H]1C(=O)N2C(C(=O)O)=C(CSc3nc(=O)c(=O)[nH]n3C)CS[C@H]12)c1csc(N)n1 [Ceftriaxone] | R |  |
| CO/N=C(\C(=O)N[C@@H]1C(=O)N2C(C(=O)OC(C)OC(C)=O)=C(COC(N)=O)CS[C@H]12)c1ccco1 (stereo partly shown) [Cefuroxime Axetil] | R |  |
| CO/N=C(\C(=O)N[C@@H]1C(=O)N2C(C(=O)O)=C(COC(N)=O)CS[C@H]12)c1ccco1 [Cefuroxime] | R |  |
| CC[C@H]1OC(=O)[C@H](C)[C@@H](O[C@H]2C[C@@](C)(OC)[C@@H](O)[C@H](C)O2)[C@H](C)[C@@H](O[C@@H]2O[C@H](C)C[C@H](N(C)C)[C@H]2O)[C@](C)(O)C[C@@H](C)C(=O)[C@H](C)[C@@H](O)[C@]1(C)O [ERY, erythromycin] |  | VITEK characterization (resistance range) (Staphylococcus aureus; S. aureus ATCC 29213): S; VITEK characterization (resistance range) (Staphylococcus aureus; S. aureus ATCC 33591): R; Resistance pattern (E. faecium BAA-2319): R |
| C[C@H]1COc2c(N3CCN(C)CC3)c(F)cc3c(=O)c(C(=O)O)cn1c23 [Levofloxacin] |  | Resistance pattern (E. faecium BAA-2319): R |
| C[C@@H](O)[C@H]1C(=O)N2C(C(=O)O)=C(S[C@@H]3CN[C@H](C(=O)N(C)C)C3)[C@H](C)[C@H]12 [Meropenem] | R |  |
| COc1c(N2C[C@@H]3CCCN[C@@H]3C2)c(F)cc2c(=O)c(C(=O)O)cn(C3CC3)c12 [Moxifloxacin] | R |  |
| CCn1cc(C(=O)O)c(=O)c2ccc(C)nc21 [Nalidixic Acid] | R |  |
| O=C1CN(/N=C/c2ccc([N+](=O)[O-])o2)C(=O)N1 [Nitrofurantoin] | R | Resistance pattern (E. faecium BAA-2319): R |
| CCn1cc(C(=O)O)c(=O)c2cc(F)c(N3CCNCC3)cc21 [Norfloxacin] | R |  |
| Cc1onc(-c2ccccc2)c1C(=O)N[C@@H]1C(=O)N2[C@@H]1SC(C)(C)[C@@H]2C(=O)O [OXA, oxacillin] |  | VITEK characterization (resistance range) (Staphylococcus aureus; S. aureus ATCC 29213): S; VITEK characterization (resistance range) (Staphylococcus aureus; S. aureus ATCC 33591): R |
| CCN1CCN(C(=O)N[C@@H](C(=O)N[C@@H]2C(=O)N3[C@@H]2SC(C)(C)[C@@H]3C(=O)O)c2ccccc2)C(=O)C1=O [Piperacillin] | R |  |
| CN(C)[C@@H]1C(O)=C(C(N)=O)C(=O)[C@@]2(O)C(O)=C3C(=O)c4c(O)cccc4[C@@](C)(O)[C@H]3C[C@@H]12 [TET, tetracycline] | R | VITEK characterization (resistance range) (Staphylococcus aureus; S. aureus ATCC 29213): S; VITEK characterization (resistance range) (Staphylococcus aureus; S. aureus ATCC 33591): R; Resistance pattern (E. faecium BAA-2319): R |
| CC1(C)S[C@@H]2[C@H](NC(=O)[C@H](C(=O)O)c3ccsc3)C(=O)N2[C@H]1C(=O)O [Ticarcillin] | R |  |
| CN(C)c1cc(NC(=O)CNC(C)(C)C)c(O)c2c1C[C@H]1C[C@H]3[C@H](N(C)C)C(O)=C(C(N)=O)C(=O)[C@@]3(O)C(O)=C1C2=O [Tigecycline] | S | Resistance pattern (E. faecium BAA-2319): S |
| NC[C@H]1O[C@H](O[C@H]2[C@H](O)[C@@H](O[C@H]3O[C@H](CO)[C@@H](O)[C@H](N)[C@H]3O)[C@H](N)C[C@@H]2N)[C@H](N)C[C@@H]1O [Tobramycin] | R |  |
| CN[C@H](CC(C)C)C(=O)N[C@H]1C(=O)N[C@@H](CC(N)=O)C(=O)N[C@H]2C(=O)N[C@H]3C(=O)N[C@H](C(=O)N[C@H](C(=O)O)c4cc(O)cc(O)c4-c4cc3ccc4O)[C@H](O)c3ccc(c(Cl)c3)Oc3cc2cc(c3O[C@@H]2O[C@H](CO)[C@@H](O)[C@H](O)[C@H]2O[C@H]2C[C@](C)(N)[C@H](O)[C@H](C)O2)Oc2ccc(cc2Cl)[C@H]1O [VAN, vancomycin] |  | VITEK characterization (resistance range) (Staphylococcus aureus; S. aureus ATCC 29213): S; VITEK characterization (resistance range) (Staphylococcus aureus; S. aureus ATCC 33591): S; Resistance pattern (E. faecium BAA-2319): R |
| colistin |  | MIC colistin value (Acinetobacter baumannii; A. baumannii JMI #1001007 colistin-resistant strain): 8 µg/mL; MIC colistin value (Acinetobacter baumannii; A. baumannii JMI #1088100 colistin-sensitive strain): 0.5 µg/mL; Concentrations with bactericidal effect ([1]; colistin-resistant A. baumannii JMI #1001007, bactericidal = ≥ 3 log10 decrease): 16 to 32 µg/mL; Concentrations with bactericidal effect after 2 h of incubation ([1]; colistin-sensitive A. baumannii JMI #1088100, bactericidal = ≥ 3 log10 decrease): > 0.25 µg/mL; Re-growth during the 24 h timeframe ([1]; colistin-sensitive A. baumannii JMI #1088100, sampled 0, 2, 4, 8, 24 h): No re-growth |
